Here are results for 13 compounds from US12692267B2 (Madera Therapeutics, LLC, priority 2019, dated 2026).

Read-outs that look alike come from different tables or passages of the source.

The subject of experiment [1] is ClpX and TUFM. Kind of experiment: ClpX and TUFM Western blots in SUM159 cells (FIG. 5). As to conditions: concentration response and time course.
Experiment [2] concerns SUM159, ClpP CRISPR KO. Kind of experiment: Growth of SUM159 versus SUM159 ClpP CRISPR KO cells (FIG. 6). The note with it: SUM159 ClpP CRISPR KO compared to SUM159.
Experiment [3] has as its system HCT116 (human colon cancer). Kind of experiment: Cancer cell viability, CCK-8, HCT116. As to conditions: for EC50: read-out: EC50 (uM, HCT116); for IC50: read-out: IC50 (uM, HCT116). In kind it is cell-based. How it is done:
(§1) Cancer cell lines. […] The plate is incubated for 48 hours.
(§2) CCK-8 solution is added directly to the cells.

Experiment [4] concerns MDA-MB-231 (MDA 231, human breast adenocarcinoma). The experiment can be described thus: Cancer cell viability, CCK-8, MDA-MB-231. The note with it: for EC50: read-out: EC50 (uM, MDA 231); for IC50: read-out: IC50 (uM, MDA 231). In kind it is cell-based. As to the method:
as §1, §2

The subject of experiment [5] is ALAS1 (SEQ ID NO. 2). The experiment can be described thus: ALAS1 Western blotting time courses (FIG. 15-17). The note with it: Ex. 85 at 50 nM; 30 minute, sustained over 24 hrs. (A western blot detects proteins with antibodies after separation by electrophoresis.)
The target in experiment [6] is recombinant human caseinolytic peptidase hClpP (Homo sapiens, UniProt Q16740). The experiment can be described thus: hClpP peptide hydrolysis assay (Ac-WLA-AMC). The note with it: Protocol 2, purified hClpP, Ac-WLA-AMC.
Experimental: Briefly, the activity of recombinant hClpP proteolytic subunit (1 μg/mL) was measured in the assay buffer composed of 50 mM Tris, 10 mM MgCl2, 100 mM KCl, 1 mM DTT, 4 mM ATP, 0.02% Triton X-100 and 5% Glycerol, pH 8.0 (HCl) using 10 µM of fluorogenic Ac-WLA-AMC substrate as described in references above. […] Using the first protocol (Protocol 1), the reaction was initiated by immediately mixing enzyme and substrate in the presence of indicated doses of compounds. Applying a second protocol (Protocol 2), the enzyme and compounds were mixed and incubated in assay buffer for 60 min before initiating the reaction by adding Ac-WLA-ACM substrate.
Enzymatic activity of hClpP was measured in assay buffer (as described in Experimental Procedure/Materials and Methods) and the level of fluorescence of liberated coumarin monitored continuously.
Experiment [7] has as its system SUM159 triple negative breast cancer cells. The experiment can be described thus: Immunoblot of mitochondrial proteins, SUM159 (FIG. 12). It is filed as cell-based. As to conditions: SUM159, 100 nM, 3-48 hrs. How it is done: (§3) Immunoblot of SUM159 or MDA-MB-231 cells following 0.1% DMSO (48 hrs) or 100 nM Ex. 65 for indicated timepoints (3-48 hrs) for indicated proteins.

The subject of experiment [8] is AN3CA (human uterine cancer). The experiment can be described thus: Cell viability CCK8, 72 hours, AN3CA. The note with it: AN3-CA, 72 hours of drug incubation. In kind it is cell-based. As to the method: (§4) For cancer cell lines, AN3CA (human uterine/endometrial cancer, Van Nyen, T. et al Int. J. Mol. Sci. 2018, 19, 2348 and referenced cited therein) cell line and Capan-2 (human pancreatic adenocarcinoma) cell line additional details for testing are as follows. Using 96 well cell culture plate (Corning Costar, Cat #3599), after addition of the test compound (Example 65, or other) the plate is incubated at 37° C., 5% CO2 for 72 hours. Cell viability was determined using CCK8 assay by adding […] of CCK8 into the assay well, incubate the plate for 2 hours and record […] using a SpectraMax i3X reader. Other 72 hour incubation studies can also using these details in addition to other experimental details described herein.
(§5) Example 65 was examined in AN3CA (human uterine cancer) and Capan-2 (human pancreatic adenocarcinoma) cancer cell lines.

For experiment [9], the system named is Capan-2 (human pancreatic adenocarcinoma). The experiment can be described thus: Cell viability CCK8, 72 hours, Capan-2. As to conditions: 72 hours of drug incubation. It is filed as cell-based. As to the method:
as §4, §5

Experiment [10] concerns MDA-MB-231 triple negative breast cancer cells. Kind of experiment: Immunoblot of mitochondrial proteins, MDA-MB-231 (FIG. 12). In kind it is cell-based. The note with it: MDA-MB-231, 100 nM, 3-48 hrs. How it is done:
as §3

Experiment [11] has as its target T1, hClpP (Homo sapiens, UniProt Q16740).
T1 construct: endogenous in cells; host or cells: HeLa cell lysate
The experiment can be described thus: hClpP binding to immobilized compound Sepharose beads, Western blot.

[12] abbreviates: Homo sapiens, HCT-116, 48 h, HCT116, 48 hours, CCK-8.
Where [13] appears, read: Homo sapiens, MDA-MB-231, MDA 231, 48 hours, CCK-8.

recombinant human caseinolytic peptidase hClpP, sequence (Q16740 57-277): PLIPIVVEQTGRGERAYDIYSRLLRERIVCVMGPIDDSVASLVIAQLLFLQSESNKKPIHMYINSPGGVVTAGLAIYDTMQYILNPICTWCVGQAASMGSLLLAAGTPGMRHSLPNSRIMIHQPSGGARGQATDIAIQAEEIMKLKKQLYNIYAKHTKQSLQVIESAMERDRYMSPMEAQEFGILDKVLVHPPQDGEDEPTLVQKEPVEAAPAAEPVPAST
T1 sequence (Q16740 57-277): as above

In the case of `Cn1c2c(c(=O)n(Cc3ccc(Cl)cc3)c1=O)CN(Cc1cccc(C#N)c1)CC2` [TR57], in experiment [1], the “ClpX and TUFM protein level” value is “reduction of the protein ClpX and TUFM”. The “Effect on growth of ClpP CRISPR knockout cells” value in experiment [2] was “resistant”.
By EC50 is commonly meant the concentration that produces a half-maximal response. With `N#Cc1cccc(Cc2nnc(C(=O)NCc3ccc(Cl)cc3)o2)c1` [Example 63, N-[(4-chlorophenyl)methyl]-5-[(3-cyanophenyl)methyl]-1,3,4-oxadiazole-2-carboxamide], the figures for the half-maximal effective concentration (EC50) in [3] (setting [12]) and in [4] (setting [13]) were 4 µM and 5 µM, respectively.
What is called IC50 is the concentration that inhibits the measured activity by half. For `O=C1C2=C(CCN(Cc3cccc(OC(F)(F)F)c3)C2)N2CCN=C2N1Cc1ccc(C(F)(F)F)cc1` [Example 3], the IC50 is 0.36 µM in experiment [3] (HCT116, 48 hours, CCK-8) and 0.27 µM in experiment [4] (MDA 231, 48 hours, CCK-8).
As to `Cc1ccccc1CN1C(=O)C2=C(CCN(Cc3ccccc3)C2)N2CCN=C12` [ONC201, reference compound], the EC50 stood at 2.8 µM in [3] (Homo sapiens, HCT-116, 48 h) and 3 µM in experiment [4] (Homo sapiens, MDA-MB-231, 48 h). For the same compound, the IC50 in [3] (Homo sapiens, HCT-116, 48 h) turned out to be 2.8 µM; in experiment [4] (Homo sapiens, MDA-MB-231, 48 h) it was 3 µM. Moreover, the “ClpX and TUFM protein level” value in [1] is “reduction of the protein ClpX and TUFM”.
On to `N#Cc1cccc(CN2CCc3cnn(Cc4ccc(Cl)cc4)c(=O)c3C2)c1` [Example 85, 3-((3-(4-chlorobenzyl)-4-oxo-3,5,7,8-tetrahydropyrido[3,4-d]pyridazin-6 (4H)-yl)methyl)benzonitrile], for which the 50% effective concentration (EC50) in [3] (setting [12]) was found to be 0.008 µM; in experiment [4] (setting [13]), 0.003 µM. In experiment [5], the “ALAS1 protein level (FIG. 16)” value was “rapidly degraded”.
`Cn1c2c(c(=O)n(Cc3cccc(C(F)(F)F)c3)c1=O)CN(Cc1ccccc1)CC2` [Example 39]: the values for the 50% effective concentration (EC50) in [3] (setting [12]) and in [4] (setting [13]) were 1.4 µM and 1.1 µM, respectively.
With `O=C1C2=C(CCN(Cc3cccc(Cl)c3)C2)N2CCN=C2N1Cc1ccc(C(F)(F)F)cc1` [Example 27], the 50% inhibitory concentration (IC50) in experiment [3] (setting [12]) and in experiment [4] (setting [13]) was 0.016 µM each time.
For the compound `Cc1nc2c(c(=O)n1Cc1ccc(Cl)cc1)CN(Cc1cccc(C#N)c1)CC2` [Example 61, 3-({3-[(4-chlorophenyl)methyl]-2-methyl-4-oxo-3H,4H,5H,6H,7H,8H-pyrimidin-6-yl}methyl)benzonitrile], the concentration giving a half-maximal response (EC50) amounted to 0.097 µM in experiment [3] (setting [12]) and 0.096 µM in experiment [4] (setting [13]).
As to `N#Cc1cccc(CN2CCC3=C(C2)C(=O)N(Cc2ccc(C(F)(F)F)cc2)C2=NCCCN23)c1` [Ex. 62, 3-[(8-oxo-9-{[4-(trifluoromethyl)phenyl]methyl}-1,5,9,11-tetraazatricyclo[8.4.0.0^2,7]tetradeca-2(7),10-dien-5-yl)methyl]benzonitrile], the concentration giving a half-maximal response (EC50) came to 0.022 µM in [3] (setting [12]) and 0.021 µM in experiment [4] (setting [13]). Also, in [6], the “Dose-dependency of hClpP activation” value is listed as “Dose-dependent increases in hClpP activity”.
For the compound `N#Cc1cccc(CN2CCc3ncn(Cc4ccc(Cl)cc4)c(=O)c3C2)c1` [Example 65], the Mitochondrial protein degradation result in [7] and in [10] was “induces degradation of mitochondrial proteins in a time dependent manner” in each case. Also, the EC50 in [3] (setting [12]) stood at 0.021 µM. Also, the IC50 in [8] was 1 nM; in [9] it was below 50 nM. For the same compound, in [6], the “Dose-dependency of hClpP activation” value is reported as “Dose-dependent increases in hClpP activity”.
With `Cn1c2c(c(=O)n(Cc3ccc(C(F)(F)F)cc3)c1=O)CN(Cc1cccc(Cl)c1)CC2` [Example 56], the EC50 amounted to 0.098 µM in experiment [3] (HCT116, 48 hours, CCK-8) and 0.29 µM in experiment [4] (MDA 231, 48 hours, CCK-8).
For `N#Cc1ccc(CN2CCC3=C(C2)C(=O)N(Cc2ccc(Cl)cc2)C2=NCCN23)cc1` [Example 22], the results for the IC50 in [3] (setting [12]) and in experiment [4] (setting [13]) were 1.8 µM and 3.4 µM, respectively.
As to `N#Cc1cccc(CN2CCc3c(c(=O)n(Cc4ccc(C(F)(F)F)cc4)c(=O)n3CCCN)C2)c1` [Ex. 57, 3-((1-(3-aminopropyl)-2,4-dioxo-3-(4-(trifluoromethyl)benzyl)-1,2,3,4,7,8-hexahydropyrido[4,3-d]pyrimidin-6 (5H)-yl)methyl)benzonitrile], the “hClpP binding to compound coupled to Sepharose beads” value in experiment [11] is on record as “directly binds”. Besides, the EC50 in experiment [3] (setting [12]) stood at 0.057 µM. Further, the “Dose-dependency of hClpP activation” value in experiment [6] was “dose-dependent increases in hClpP activity”.
